Assay results: PubChem BioAssay (NCI)
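Protocol summary: plate cells (96-well), add compound at 5 concentrations, incubate 48 h, interpolate endpoints linearly. GI50 marks 50% less growth. Definition used: TGI = concentration required for complete inhibition of growth.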

Legend:
Assay in all cases: NCI tumour cell line growth inhibition, 48 h
RPMI-8226 leukemia = test system: RPMI-8226 leukemia
OVCAR-8 ovarian = test system: OVCAR-8 ovarian
NCI-H23 lung = test system: NCI-H23 lung
TK-10 renal = test system: TK-10 renal
IGROV1 ovarian = test system: IGROV1 ovarian
CCRF-CEM leukemia = test system: CCRF-CEM leukemia
SF-268 CNS = test system: SF-268 CNS
HT29 colon = test system: HT29 colon
NCI-H522 lung = test system: NCI-H522 lung
K-562 leukemia = test system: K-562 leukemia
UO-31 renal = test system: UO-31 renal
HS 578T breast = test system: HS 578T breast
OVCAR-3 ovarian = test system: OVCAR-3 ovarian
OVCAR-5 ovarian = test system: OVCAR-5 ovarian
KM12 colon = test system: KM12 colon
HL-60(TB) leukemia = test system: HL-60(TB) leukemia
HOP-62 NSCLC = test system: HOP-62 NSCLC
MALME-3M melanoma = test system: MALME-3M melanoma
COLO 205 colon = test system: COLO 205 colon
MOLT-4 leukemia = test system: MOLT-4 leukemia
MDA-MB-231 breast = test system: MDA-MB-231 breast
HCT-15 colon = test system: HCT-15 colon
UACC-62 melanoma = test system: UACC-62 melanoma
LOX IMVI melanoma = test system: LOX IMVI melanoma
SNB-75 CNS = test system: SNB-75 CNS
OVCAR-4 ovarian = test system: OVCAR-4 ovarian
SK-MEL-5 melanoma = test system: SK-MEL-5 melanoma
SK-MEL-2 melanoma = test system: SK-MEL-2 melanoma
HCC-2998 colon = test system: HCC-2998 colon
SR leukemia = test system: SR leukemia
UACC-257 melanoma = test system: UACC-257 melanoma
BT-549 breast = test system: BT-549 breast
SW-620 colon = test system: SW-620 colon
PC-3 prostate = test system: PC-3 prostate
MCF7 breast = test system: MCF7 breast
SF-539 CNS = test system: SF-539 CNS
RXF 393 renal = test system: RXF 393 renal
A549 NSCLC = test system: A549 NSCLC
M14 melanoma = test system: M14 melanoma
NCI/ADR-RES ovarian = test system: NCI/ADR-RES ovarian
NCI-H460 lung = test system: NCI-H460 lung
786-0 renal = test system: 786-0 renal
A498 renal = test system: A498 renal
NCI-H226 lung = test system: NCI-H226 lung
U251 CNS = test system: U251 CNS
MDA-MB-435 = test system: MDA-MB-435
SK-MEL-28 melanoma = test system: SK-MEL-28 melanoma
ACHN renal = test system: ACHN renal
SF-295 CNS = test system: SF-295 CNS
HCT-116 colon = test system: HCT-116 colon
T-47D breast = test system: T-47D breast
SK-OV-3 ovarian = test system: SK-OV-3 ovarian
HOP-92 NSCLC = test system: HOP-92 NSCLC
SNB-19 CNS = test system: SNB-19 CNS
SN12C renal = test system: SN12C renal
EKVX NSCLC = test system: EKVX NSCLC
DU-145 prostate = test system: DU-145 prostate
CAKI-1 renal = test system: CAKI-1 renal

What does the source list for `CC(CN(C)C)Oc1ccccc1NC1=C(Cl)C(=O)C(Nc2ccccc2OC(C)CN(C)C)=C(Cl)C1=O` (stereo unspecified)?
GI50 (RPMI-8226 leukemia): 372 nM; TGI (RPMI-8226 leukemia): 1950 nM; GI50 (OVCAR-8 ovarian): 337 nM; TGI (OVCAR-8 ovarian): 1710 nM; GI50 (NCI-H23 lung): 273 nM; TGI (NCI-H23 lung): 915 nM; GI50 (TK-10 renal): 479 nM; TGI (TK-10 renal): 974 nM; GI50 (IGROV1 ovarian): 580 nM; TGI (IGROV1 ovarian): 1880 nM; GI50 (CCRF-CEM leukemia): 265 nM; TGI (CCRF-CEM leukemia): 882 nM; GI50 (SF-268 CNS): 1490 nM; TGI (SF-268 CNS): 3060 nM; GI50 (HT29 colon): 179 nM; TGI (HT29 colon): 423 nM; GI50 (NCI-H522 lung): 157 nM; TGI (NCI-H522 lung): 337 nM; GI50 (K-562 leukemia): 210 nM; TGI (K-562 leukemia): 507 nM; GI50 (UO-31 renal): 437 nM; TGI (UO-31 renal): 853 nM; GI50 (HS 578T breast): 1800 nM; TGI (HS 578T breast): 4530 nM; GI50 (OVCAR-3 ovarian): 167 nM; TGI (OVCAR-3 ovarian): 310 nM; GI50 (OVCAR-5 ovarian): 935 nM; TGI (OVCAR-5 ovarian): 2440 nM; GI50 (KM12 colon): 1200 nM; TGI (KM12 colon): 2570 nM; GI50 (HL-60(TB) leukemia): 272 nM; TGI (HL-60(TB) leukemia): 902 nM; GI50 (HOP-62 NSCLC): 1670 nM; TGI (HOP-62 NSCLC): 3070 nM; GI50 (MALME-3M melanoma): 605 nM; TGI (MALME-3M melanoma): 1380 nM; GI50 (COLO 205 colon): 174 nM; TGI (COLO 205 colon): 359 nM; GI50 (MOLT-4 leukemia): 195 nM; TGI (MOLT-4 leukemia): 510 nM; GI50 (MDA-MB-231 breast): 509 nM; TGI (MDA-MB-231 breast): 1200 nM; GI50 (HCT-15 colon): 176 nM; TGI (HCT-15 colon): 375 nM; GI50 (UACC-62 melanoma): 1550 nM; TGI (UACC-62 melanoma): 3050 nM; GI50 (LOX IMVI melanoma): 183 nM; TGI (LOX IMVI melanoma): 377 nM; GI50 (SNB-75 CNS): 1440 nM; TGI (SNB-75 CNS): 3010 nM; GI50 (OVCAR-4 ovarian): 146 nM; TGI (OVCAR-4 ovarian): 279 nM; GI50 (SK-MEL-5 melanoma): 1560 nM; TGI (SK-MEL-5 melanoma): 2940 nM; GI50 (SK-MEL-2 melanoma): 1340 nM; TGI (SK-MEL-2 melanoma): 2890 nM; GI50 (HCC-2998 colon): 1290 nM; TGI (HCC-2998 colon): 2910 nM; GI50 (SR leukemia): 265 nM; TGI (SR leukemia): 1170 nM; GI50 (UACC-257 melanoma): 1160 nM; TGI (UACC-257 melanoma): 2530 nM; GI50 (BT-549 breast): 1620 nM; TGI (BT-549 breast): 2980 nM; GI50 (SW-620 colon): 175 nM; TGI (SW-620 colon): 357 nM; GI50 (PC-3 prostate): 1330 nM; TGI (PC-3 prostate): 2860 nM; GI50 (MCF7 breast): 169 nM; TGI (MCF7 breast): 410 nM; GI50 (SF-539 CNS): 1440 nM; TGI (SF-539 CNS): 2760 nM; GI50 (RXF 393 renal): 663 nM; TGI (RXF 393 renal): 2030 nM; GI50 (A549 NSCLC): 1700 nM; TGI (A549 NSCLC): 3240 nM; GI50 (M14 melanoma): 1380 nM; TGI (M14 melanoma): 2830 nM; GI50 (NCI/ADR-RES ovarian): 1970 nM; TGI (NCI/ADR-RES ovarian): 8530 nM; GI50 (NCI-H460 lung): 1300 nM; TGI (NCI-H460 lung): 2900 nM; GI50 (786-0 renal): 708 nM; TGI (786-0 renal): 2010 nM; GI50 (A498 renal): 1510 nM; TGI (A498 renal): 2860 nM; GI50 (NCI-H226 lung): 1410 nM; TGI (NCI-H226 lung): 2910 nM; GI50 (U251 CNS): 1330 nM; TGI (U251 CNS): 2730 nM; GI50 (MDA-MB-435): 753 nM; TGI (MDA-MB-435): 2150 nM; GI50 (SK-MEL-28 melanoma): 1500 nM; TGI (SK-MEL-28 melanoma): 2870 nM; GI50 (ACHN renal): 174 nM; TGI (ACHN renal): 312 nM; GI50 (SF-295 CNS): 1830 nM; TGI (SF-295 CNS): 3460 nM; GI50 (HCT-116 colon): 170 nM; TGI (HCT-116 colon): 344 nM; GI50 (T-47D breast): 175 nM; TGI (T-47D breast): 455 nM; GI50 (SK-OV-3 ovarian): 2290 nM; TGI (SK-OV-3 ovarian): 5430 nM; GI50 (HOP-92 NSCLC): 268 nM; TGI (HOP-92 NSCLC): 807 nM; GI50 (SNB-19 CNS): 1710 nM; TGI (SNB-19 CNS): 3280 nM; GI50 (SN12C renal): 347 nM; TGI (SN12C renal): 853 nM; GI50 (EKVX NSCLC): 685 nM; TGI (EKVX NSCLC): 1810 nM; GI50 (DU-145 prostate): 255 nM; TGI (DU-145 prostate): 686 nM; GI50 (CAKI-1 renal): 1340 nM; TGI (CAKI-1 renal): 2720 nM
